Results from article PMC5893132, “Selective inhibition of histamine-evoked Ca^2+ signals by compartmentalized cAMP in human bronchial airway smooth muscle cells” (Cell Calcium, 2018).

Legend:
Type in all cases: cell-based, human
Conditions in all cases: PTX 100 ng·mL^−1, 24 h
[1] = system: histamine-evoked Ca^2+ signals in hBASMCs; assay: Histamine-evoked Ca2+ signals in populations of fluo-4-loaded hBASMCs
Experimental: (§1) Two methods were used to measure [Ca^2+]i in populations of hBASMCs. For measurements using a FlexStation III plate-reader (Molecular Devices, Sunnyvale, CA, USA), hBASMCs were seeded into 96-well plates (10^4 cells per well). After about 4 days, when the cells were confluent, the medium was replaced with SMGM-2 without serum or growth factor supplements, and the cells were used after a further 24 h. This period in serum-free medium increased by about 2-fold the amplitude of the increases in [Ca^2+]i evoked by histamine (results not shown). Cells were washed with HEPES-buffered saline (HBS: 135 mM NaCl, 5.9 mM KCl, 1.2 mM MgCl2, 1.5 mM CaCl2, 11.6 mM HEPES, 11.5 mM D-glucose, pH 7.3), and loaded with fluo-4 by incubation with fluo-4-AM (2 μM) in HBS (100 μL per well) containing pluronic F127 (0.02%, v/v) and probenecid (2.5 mM). After 1 h at 20 °C, the medium was replaced with HBS (100 μL per well) containing probenecid (2.5 mM). After a further incubation at 20 °C for 1 h, the medium was replaced with HBS (60–80 μL per well) or nominally Ca^2+-free HBS, and the cells were used immediately for experiments at 20 °C. In some experiments, BAPTA (2.5 mM) was added to HBS during the recording; this reduced the free [Ca^2+] of the HBS to ∼120 nM without affecting the pH. Drug additions (20 μL at 4 or 5 times the final concentration) were added automatically. Fluorescence from fluo-4 (excitation 485 nm, emission 525 nm) was recorded at 1.44-s intervals using Softmax Pro 5.4 (Molecular Devices). Fluorescence was calibrated to [Ca^2+]i from: [Ca^2+]i=KDCa×(F−Fmin/Fmax−F) where, KDCa is the equilibrium dissociation constant of fluo-4 for Ca^2+ (345 nM), F is the recorded fluorescence, and Fmin and Fmax are the fluorescence values recorded after addition of triton-X-100 (0.1%, v/v) with either BAPTA (10 mM, Fmin) or CaCl2 (10 mM, Fmax). Although treatment with triton-X-100 releases fluo-4 from cells into the medium, the fluo-4 fluorescence is captured with the same efficiency whether it is trapped within cells or dispersed within the small volume of the wells (unpublished observations). Fmax was determined for each well at the end of an experiment, and the average value was used for each column of 8 wells. Fmin was determined from parallel wells on each plate.
For measurements of [Ca^2+]i using an FDSS 7000 FLIPR (Hamamatsu), hBASMCs were seeded into 384-well plates (8000 cells per well) in 20 μL of SMGM-2 containing 5% serum. After 24 h, the medium was replaced with 15 μL of serum-free SMGM-2, and after a further 6 h the cells were loaded with Ca^2+ indicator by addition of FLIPR calcium 4 assay kit (Molecular Devices) supplemented with probenecid (2.5 mM). The exact composition of this ‘no-wash’ indicator kit is not disclosed by the manufacturer, but it contains fluo-4-AM and components that reduce background fluorescence. The manufacture’s stock solution was diluted 10-fold into HBSS containing BSA (0.1%, w/v) and HEPES (20 mM); 5 μL of this solution was then added to each well (containing 15 μL of serum-free SMGM-2). After 2 h at 37 °C in humidified air containing 5% CO2, the plate was used for experiments at 20 °C. Most additions (5 μL) were prepared in HBSS supplemented with HEPES (20 mM) and BSA (0.1%, w/v). For more prolonged incubations, drugs were diluted in the initial loading medium (to avoid changes in dye-loading during the ‘no wash’ protocol). Fluorescence signals (excitation at 480 nm, emission at 540 nm) were calibrated to [Ca^2+]i after measurement of Fmin and Fmax uniquely for each well, using a KDCa = 345 nM.
All concentration-effect relationships were determined by addition of different drug concentrations to individual wells in the same multi-well plate, rather than by sequential additions to the same well. […]

[2] = system: bradykinin-evoked Ca^2+ signals in hBASMCs; assay: Bradykinin-evoked Ca2+ signals in populations of fluo-4-loaded hBASMCs
Experimental: as §1, with “This period in serum-free medium increased by about 2-fold the amplitude of the increases in [Ca^2+]i evoked by histamine (results not shown).” left out, “In some experiments, BAPTA (2.5 mM) was added to HBS during the recording; this reduced the free [Ca^2+] of the HBS to ∼120 nM without affecting the pH.” left out, “Although treatment with triton-X-100 releases fluo-4 from cells into the medium, the fluo-4 fluorescence is captured with the same efficiency whether it is trapped within cells or dispersed within the small volume of the wells (unpublished observations).” left out
(§2) For measurements of [Ca^2+]i using an FDSS 7000 FLIPR (Hamamatsu), hBASMCs were seeded into 384-well plates (8000 cells per well) in 20 μL of SMGM-2 containing 5% serum. […] The exact composition of this ‘no-wash’ indicator kit is not disclosed by the manufacturer, but it contains fluo-4-AM and components that reduce background fluorescence. […]

[3] = system: carbachol-evoked Ca^2+ signals in hBASMCs; assay: Carbachol-evoked Ca2+ signals in populations of fluo-4-loaded hBASMCs
Experimental: as §1, with “This period in serum-free medium increased by about 2-fold the amplitude of the increases in [Ca^2+]i evoked by histamine (results not shown).” left out, “In some experiments, BAPTA (2.5 mM) was added to HBS during the recording; this reduced the free [Ca^2+] of the HBS to ∼120 nM without affecting the pH.” left out, “Although treatment with triton-X-100 releases fluo-4 from cells into the medium, the fluo-4 fluorescence is captured with the same efficiency whether it is trapped within cells or dispersed within the small volume of the wells (unpublished observations).” left out
as §2

[4] = system: LPA-evoked Ca^2+ signals in hBASMCs; assay: LPA-evoked Ca2+ signals in populations of fluo-4-loaded hBASMCs
Experimental: Two methods were used to measure [Ca^2+]i in populations of hBASMCs. For measurements using a FlexStation III plate-reader (Molecular Devices, Sunnyvale, CA, USA), hBASMCs were seeded into 96-well plates (10^4 cells per well). After about 4 days, when the cells were confluent, the medium was replaced with SMGM-2 without serum or growth factor supplements, and the cells were used after a further 24 h. […] Cells were washed with HEPES-buffered saline (HBS: 135 mM NaCl, 5.9 mM KCl, 1.2 mM MgCl2, 1.5 mM CaCl2, 11.6 mM HEPES, 11.5 mM D-glucose, pH 7.3), and loaded with fluo-4 by incubation with fluo-4-AM (2 μM) in HBS (100 μL per well) containing pluronic F127 (0.02%, v/v) and probenecid (2.5 mM). […] Fluorescence from fluo-4 (excitation 485 nm, emission 525 nm) was recorded at 1.44-s intervals using Softmax Pro 5.4 (Molecular Devices). Fluorescence was calibrated to [Ca^2+]i from: [Ca^2+]i=KDCa×(F−Fmin/Fmax−F) where, KDCa is the equilibrium dissociation constant of fluo-4 for Ca^2+ (345 nM), F is the recorded fluorescence, and Fmin and Fmax are the fluorescence values recorded after addition of triton-X-100 (0.1%, v/v) with either BAPTA (10 mM, Fmin) or CaCl2 (10 mM, Fmax). […] Fmax was determined for each well at the end of an experiment, and the average value was used for each column of 8 wells. Fmin was determined from parallel wells on each plate. […]

Pertussis toxin [PTX]
effect of pre-treatment on the Ca2+ signals evoked by histamine [1]: had no effect | effect of pre-treatment on the Ca2+ signals evoked by bradykinin [2]: had no effect | effect of pre-treatment on maximal amplitude of and sensitivity of the Ca2+ signals evoked by carbachol [3]: significantly reduced | effect of pre-treatment on maximal amplitude of and sensitivity of the Ca2+ signals evoked by LPA [4]: significantly reduced
